# In US7208517B1, “Endothelin antagonists” (Abbott Labortories, priority 1994, dated 2007):
# Target: T1, ETA Receptor (Rattus norvegicus, UniProt P26684)
# T1 construct: endogenous in cells; host or cells: MMQ rat pituitary cells (membranes)
# T1 sequence (P26684 21-426): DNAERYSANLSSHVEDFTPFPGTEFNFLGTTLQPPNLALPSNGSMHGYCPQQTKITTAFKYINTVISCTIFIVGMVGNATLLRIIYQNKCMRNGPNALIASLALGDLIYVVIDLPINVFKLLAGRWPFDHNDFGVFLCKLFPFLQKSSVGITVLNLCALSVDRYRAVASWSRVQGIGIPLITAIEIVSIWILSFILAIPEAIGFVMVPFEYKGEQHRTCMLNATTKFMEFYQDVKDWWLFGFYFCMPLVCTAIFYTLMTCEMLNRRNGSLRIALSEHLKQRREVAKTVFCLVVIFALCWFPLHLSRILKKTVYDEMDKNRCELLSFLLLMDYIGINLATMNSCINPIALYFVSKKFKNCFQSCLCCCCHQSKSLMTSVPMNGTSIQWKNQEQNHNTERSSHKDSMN
# Test: [125I]ET-1 binding to membranes from MMQ cells (ETA receptor binding assay, Table 4)
# Details: test compound at 1 μM; 0.1 nM [125I]ET-1, MMQ cell membranes, 4 hours at 25° C.
row,% Inhibition of ETA at 1 μM,SMILES
1,80.3%,"CCCCN(CCCC)C(=O)CN1CC(c2ccc3c(c2)OCO3)C(C(=O)O)C1C1CCC(OC)CC1 (stereo not drawn) [Example 160B, trans,trans-1-(N,N-Di(n-butyl)aminocarbonylmethyl)-2-(anti-4-methoxycyclohexyl)-4-(1,3-benzodioxol-5-yl)pyrrolidine-3-carboxylic acid]"
2,96.3%,"COc1ccc(C2C(C(=O)O)C(c3ccc4c(c3)OCO4)CN2CC(=O)N(C)Cc2ccc(OC)c(OC)c2)cc1 (stereo not drawn) [Example 73C, trans,trans-2-(4-Methoxyphenyl)-4-(1,3-benzodioxol-5-yl)-1-(N-(3,4-dimethoxybenzyl)-N-methylaminocarbonylmethyl)pyrrolidine-3-carboxylic acid]"
3,90.0%,"CCCN(CCN1CC(c2ccc3c(c2)OCO3)C(C(=O)O)C1c1ccc(OC)cc1)S(=O)(=O)c1ccc(Cl)cc1 (stereo not drawn) [Example 132, trans,trans-1-(2-(N-Propyl-N-(4-chlorobenzenesulfonyl)amino)ethyl)-2-(4-methoxyphenyl)-4-(1,3-benzodioxol-5-yl)pyrrolidine-3-carboxylic acid]"
4,79.4%,"CCCN(C)C(=O)CN1CC(c2ccc3ccoc3c2)C(C(=O)O)C1c1ccc(OC)cc1 (stereo not drawn) [Example 136, trans,trans-1-(N-Methyl-N-propylaminocarbonylmethyl)-2-(4-methoxyphenyl)-4-(6-benzofuranyl)pyrrolidine-3-carboxylic acid]"
5,34.9%,"COCCOCCN1CC(c2ccc3c(c2)OCO3)C(C(=O)O)C1c1ccc(OC)cc1 (stereo not drawn) [Example 6B, trans,trans-2-(4-Methoxyphenyl)-4-(1,3-benzodioxol-5-yl)-1-[2-(2-methoxyethoxy)ethyl]-pyrrolidine-3-carboxylic acid]"
6,91.3%,"CCN(CC)C(=O)CN1CC(c2ccc3c(c2)OCO3)C(C(=O)O)C1c1ccc(OC)cc1 (stereo not drawn) [Example 44, trans,trans-2-(4-Methoxyphenyl)-4-(1,3-benzodioxol-5-yl)-1-(N,N-diethylaminocarbonylmethyl)-pyrrolidine-3-carboxylic acid]"
7,83.0%,"CCCCN(CCCC)C(=O)CN1CC(c2cccc3occc23)C(C(=O)O)C1c1ccc(OC)cc1 (stereo not drawn) [Example 138, trans,trans-1-(N,N-Di(n-butyl)aminocarbonylmethyl)-2-(4-methoxyphenyl)-4-(4-benzofuranyl)pyrrolidine-3-carboxylic acid]"
8,91.6%,"CCCCN(CCCC)C(=O)C(C)N1CC(c2ccc3c(c2)OCO3)C(C(=O)O)C1c1ccc(OC)cc1 (racemic) [Example 91C, trans,trans-2-(4-Methoxyphenyl)-4-(1,3-benzodioxol-5-yl)-1-((N,N-dibutylamino)carbonyl-1-(RS)-ethyl)pyrrolidine-3-carboxylic acid]"
9,100.0%,"CCCN(CC1CC1)C(=O)CN1CC(c2ccc3c(c2)OCO3)C(C(=O)O)C1c1ccc(OC)cc1 (stereo not drawn) [Example 38, trans,trans-2-(4-Methoxyphenyl)-4-(1,3-benzodioxol-5-yl)-1-(N-cyclopropylmethyl-N-propylaminocarbonylmethyl)-pyrrolidine-3-carboxylic acid]"
10,66.1%,"COc1ccc(NC(=O)N2CC(c3ccc4c(c3)OCO4)C(C(=O)O)C2c2ccc(OC)cc2)cc1 (stereo not drawn) [Example 10, trans,trans-2-(4-Methoxyphenyl)-4-(1,3-benzodioxol-5-yl)-1-(4-methoxyphenylaminocarbonyl)-3-pyrrolidine-3-carboxylic acid]"
11,85.3%,"CCCN(C)C(=O)CN1CC(c2ccc3c(c2)OCCO3)C(C(=O)O)C1c1ccc(OC)cc1 (stereo not drawn) [Example 29, trans,trans-2-(4-Methoxyphenyl)-4-(1,4-benzodioxan-6-yl)-1-(N-methyl-N-propylaminocarbonylmethyl)-pyrrolidine-3-carboxylic acid]"
12,58.4%,"COc1ccc(C2C(C(=O)O)C(c3ccc4c(c3)OCO4)CN2CC(N)=O)cc1 (stereo not drawn) [Example 2, trans,trans-2-(4-Methoxyphenyl)-4-(1,3-benzodioxol-5-yl)-1-(aminocarbonylmethyl)-pyrrolidine-3-carboxylic acid]"
13,36.2%,"CCCCN(CCCC)C(=O)CN1CC(c2ccc3c(c2)CCO3)C(C(=O)O)C1c1ccc(C(C)(C)C)cc1 (stereo not drawn) [Example 159, trans,trans-1-(N,N-Di(n-butyl)aminocarbonylmethyl)-2-(4-t-butylphenyl)-4-(5-benzo-2,3-dihydrofuranylpyrrolidine-3-carboxylic acid]"
14,91.0%,"CCCN(CCN1CC(c2ccc3c(c2)OCO3)C(C(=O)O)C1c1ccc(OC)cc1)S(=O)(=O)CCCCl (stereo not drawn) [Example 124, trans,trans-1-(2-(N-Propyl-N-(3-chloropropylsulfonyl)amino)ethyl)-2-(4-methoxyphenyl)-4-(1,3-benzodioxol-5-yl)pyrrolidine-3-carboxylic acid]"
15,92.3%,"COc1ccc(C2C(C(=O)O)C(c3ccc4c(c3)OCO4)CN2CC(=O)N(C2CCCCC2)C2CCCCC2)cc1 (stereo not drawn) [Example 311, trans—trans-2-(4-Methoxyphenyl)-4-(1,3-benzodioxol-5-yl)-1-[N,N-dicyclohexylaminocarbonylmethyl]-pyrrolidine-3-carboxylic acid]"
16,89.5%,"CCCCS(=O)(=O)N(CCC)CCN1CC(c2ccc3c(c2)OCO3)C(C(=O)O)C1c1ccc(OC)cc1 (stereo not drawn) [Example 131, trans,trans-1-(2-(N-Propyl-N-(n-butylsulfonyl)amino)ethyl)-2-(4-methoxyphenyl)-4-(1,3-benzodioxol-5-yl)pyrrolidine-3-carboxylic acid]"
17,83.0%,"COCCOCCN1CC(c2ccc(OC)cc2)C(C(=O)O)C1c1ccc2c(c1)OCO2 (stereo not drawn) [Example 26, trans,trans-2-(1,3-Benzodioxol-5-yl)-4-(4-methoxyphenyl)-1-[2-(2-methoxyethoxy)ethyl)]-pyrrolidine-3-carboxylic acid]"
18,97.2%,"CCCN(CCN1CC(c2ccc3c(c2)OCO3)C(C(=O)O)C1c1ccc(OC)cc1)S(=O)(=O)CCOC (stereo not drawn) [Example 125, trans,trans-1-(2-(N-Propyl-N-(2-methoxyethylsulfonyl)amino)ethyl)-2-(4-methoxyphenyl)-4-(1,3-benzodioxol-5-yl)pyrrolidine-3-carboxylic acid]"
19,91.7%,"CCCN(CCN1CC(c2ccc3c(c2)OCO3)C(C(=O)O)C1c1ccc(OC)cc1)S(=O)(=O)CCOCC (stereo not drawn) [Example 126, trans,trans-1-(2-(N-Propyl-N-(2-ethoxyethylsulfonyl)amino)ethyl)-2-(4-methoxyphenyl)-4-(1,3-benzodioxol-5-yl)pyrrolidine-3-carboxylic acid]"
20,83.6%,"CCCCCN(C)C(=O)CN1CC(c2ccc3c(c2)OCO3)C(C(=O)O)C1c1ccc(OC)cc1 (stereo not drawn) [Example 39, trans,trans-2-(4-Methoxyphenyl)-4-(1,3-benzodioxol-5-yl)-1-(N-methyl-N-pentylaminocarbonylmethyl)-pyrrolidine-3-carboxylic acid]"
21,95.2%,"CCCCCCN(C)C(=O)CN1CC(c2ccc3c(c2)OCO3)C(C(=O)O)C1c1ccc(OC)cc1 (stereo not drawn) [Example 42, trans,trans-2-(4-Methoxyphenyl)-4-(1,3-benzodioxol-5-yl)-1-(N-methyl-N-(n-hexyl)aminocarbonylmethyl)-pyrrolidine-3-carboxylic acid]"
22,91.8%,"CCCCN(CCCC)C(=O)CN1CC(c2ccc3c(c2)OCO3)C(C(=O)O)C1c1ccc(C(C)(C)C)cc1 (stereo not drawn) [Example 158, trans,trans-1-(N,N-Di(n-butyl)aminocarbonylmethyl)-2-(4-t-butylphenyl)-4-(1,3-benzodioxol-5-yl)pyrrolidine-3-carboxylic acid]"
23,80.2%,"CCCCN(CCCC)C(=O)CN1CC(c2ccc3c(c2)CCO3)C(C(=O)O)C1c1ccc(C(C)(C)C)cc1 (stereo not drawn) [Example 154, trans,trans-1-(N,N-Di(n-butyl)aminocarbonylmethyl)-2-(4-t-butylphenyl)-4-(5-benzo-2,3-dihydrofuranyl)pyrrolidine-3-carboxylic acid]"
24,73.0%,"CCCN(C)C(=O)CN1CC(c2ccc(OC)cc2OC)C(C(=O)O)C1c1ccc(OC)cc1 (stereo not drawn) [Example 147, trans,trans-1-(N-Methyl-N-propylaminocarbonylmethyl)-2-(4-methoxyphenyl)-4-(2,4-dimethoxyphenyl)pyrrolidine-3-carboxylic acid]"
25,106.3%,"CCCCN(CCCC)C(=O)CN1CC(c2ccc3ccoc3c2)C(C(=O)O)C1c1ccc(OC)cc1 (stereo not drawn) [Example 140, trans,trans-1-(N,N-Di(n-butyl)aminocarbonylmethyl)-2-(4-methoxyphenyl)-4-(6-benzofuranyl)pyrrolidine-3-carboxylic acid]"

row,SMILES,% Inhibition of ETA at 1 μM
1,"CCCN(CCN1CC(c2ccc3c(c2)OCO3)C(C(=O)O)C1c1ccc(OC)cc1)C(=O)OC(C)(C)C (stereo not drawn) [Example 312, trans—trans-2-(4-Methoxyphenyl)-4-(1,3-benzodioxol-5-yl)-1-[2-(N-propyl-N-tert-butoxycarbonylamino)ethyl]-pyrrolidine-3-carboxylic acid]",88.2%

# Same assay, conditions: test compound at 1 μM; 0.1 nM [125I]ET-1, MMQ cell membranes, 4 hours at 25° C.; read-out: % Inhibition of ETA at 1 μM
row,inhibition at 1 µM,SMILES
1,95.9%,COc1ccc(C2C(C(=O)O)C(c3ccc4c(c3)OCO4)CN2CC(=O)Nc2ccccc2)cc1 (stereo not drawn) [Example 495]
